Results from patent publication US10703764B2, “Benzopiperazine compositions as BET bromodomain inhibitors” (FORMA Therapeutics, Inc., priority 2013, dated 2020).

Legend:
BRD4 BD1 = target: T1, BRD4 BD1 (Homo sapiens, UniProt O60885); assay: AlphaScreen binding assay, BRD4 Bromodomain 1
T1 construct: made in house
In short: (§1)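 Compound dilution series were mixed with His-tagged BRD4 bromodomain and biotinylated tetra-acetylated H4 (1-21) peptide at pH 7.3 (BD1 and peptide at 50 nM, BD2 and peptide at 100 nM). Donor and acceptor beads were then added, and plates were equilibrated at least 1 h before reading. IC50 values were fitted with a four-parameter logistic model.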

BRD4 BD2 = target: T2, BRD4 BD2 (Homo sapiens, UniProt O60885); assay: AlphaScreen binding assay, BRD4 Bromodomain 2
T2 construct: made in house
In short: as §1

MV4-11 cells = assay: Oncology cell growth assay (3-day proliferation, CellTiter-Glo); type: cell-based; details: Homo sapiens, MV4-11, 72 h, AML cell line MV4-11, 72 hours, compounds grouped by IC50 range, read-out: MV4-11 IC50 (inhibition of proliferation, gIC50)
In short: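 A 3-day proliferation test used MV4-11 cells seeded at 3000 per well with eight compound concentrations (10 μM top, 3-fold dilution) at 37° C in 5% CO2. CellTiter-Glo luminescence defined viable cell signal. A four-parameter logistic curve against DMSO and background wells gave the gIC50.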

Row | SMILES | IC50 (BRD4 BD1) [nM] | IC50 (BRD4 BD2) [nM] | IC50 (MV4-11 cells) [nM]
1 | CC(=O)N1c2ccc(-c3ccc(C(=O)N4CCN(C=O)CC4)cc3)cc2N(C(=O)OC(C)C)C[C@@H]1C [Example I-545] | 100 to 1000 | 50 to 500 | 100 to 500
2 | COC(=O)N1CCN(C(=O)c2ccc(-c3ccc4c(c3)N(C(=O)OC(C)C)C[C@H](C)N4C(C)=O)cc2)CC1 [Example I-546] | 100 to 1000 | 50 to 500 | 100 to 500
3 | CC(=O)N1c2ccc(-c3ccc(C(=O)N4CCNC(=O)C4)cc3)cc2N(C(=O)OC(C)C)C[C@@H]1C [Example I-547] | 100 to 1000 | 50 to 500 | 100 to 500
4 | CC(=O)N1CCN(C(=O)c2ccc(-c3ccc4c(c3)N(C(=O)OC(C)C)C[C@H](C)N4C(C)=O)cc2)CC1 [Example I-548] | 100 to 1000 | 50 to 500 | < 100
5 | CC(=O)N1c2ccc(-c3ccc(C(=O)N4CCNCC4)cc3)cc2N(C(=O)OC(C)C)C[C@@H]1C [Example I-557] | 100 to 1000 | 50 to 500 | 100 to 500
6 | CC(C)OC(=O)N1C[C@H](C)N(C(=O)C2CC2)c2ccc(-c3ccc(C(=O)N4CCNCC4)cc3)cc21 [Example I-558] | 100 to 1000 | 50 to 500 | 100 to 500
7 | COC(=O)N1c2ccc(-c3ccc(C(=O)N(C)CC(=O)N(C)C)cc3)cc2N(C(=O)OC(C)C)C[C@@H]1C [Example I-561] | < 100 | 50 to 500 | 100 to 500
8 | CNC(=O)CN(C)C(=O)c1ccc(-c2ccc3c(c2)N(C(=O)OC(C)C)C[C@H](C)N3C(=O)C2CC2)cc1 [Example I-562] | 100 to 1000 | 50 to 500 | 100 to 500
9 | CNC(=O)CN(C)C(=O)c1ccc(-c2ccc3c(c2)N(C(=O)OC(C)C)C[C@H](C)N3C(=O)OC)cc1 [Example I-563] | 100 to 1000 | 50 to 500 | 100 to 500
10 | COC(=O)N1c2ccc(-c3ccc(C(=O)N4CC[C@@H](N(C)C)C4)cc3)cc2N(C(=O)OC(C)C)C[C@@H]1C [Example I-565] | 100 to 1000 | 50 to 500 | 100 to 500
11 | COC(=O)N1c2ccc(-c3ccc(C(=O)N4CC[C@@H](NC(C)=O)C4)cc3)cc2N(C(=O)OC(C)C)C[C@@H]1C [Example I-569] | 100 to 1000 | 50 to 500 | 100 to 500
12 | CC(C)OC(=O)N1C[C@H](C)N(C(=O)C2CC2)c2ccc(-c3ccc(C(=O)N4CCN(S(C)(=O)=O)CC4)cc3)cc21 [Example I-572] | 100 to 1000 | > 500 | 100 to 500
13 | COC(=O)N1c2ccc(-c3ccc(C(=O)N4CC[C@H](O)C4)cc3)cc2N(C(=O)OC(C)C)C[C@@H]1C [Example I-575] | 100 to 1000 | 50 to 500 | 100 to 500
14 | COC(=O)N1c2ccc(-c3ccc(C(=O)N4CC[C@@H](O)C4)cc3)cc2N(C(=O)OC(C)C)C[C@@H]1C [Example I-577] | 100 to 1000 | 50 to 500 | > 500
15 | CC(C)OC(=O)N1C[C@H](C)N(C(=O)C2CC2)c2ccc(-c3ccc(C(=O)N4CC(O)C4)cc3)cc21 [Example I-578] | 100 to 1000 | 50 to 500 | 100 to 500
16 | CC(=O)N1c2ccc(-c3ccc(C(=O)N4CC[C@H](O)C4)cc3)cc2N(C(=O)OC(C)C)C[C@@H]1C [Example I-580] | 100 to 1000 | 50 to 500 | 100 to 500

Continued, values first:

Row | IC50 (BRD4 BD1) [nM] | IC50 (BRD4 BD2) [nM] | IC50 (MV4-11 cells) [nM] | SMILES
17 | 100 to 1000 | 50 to 500 | 100 to 500 | CC(=O)N1c2ccc(-c3ccc(C(=O)N4CCN(S(C)(=O)=O)CC4)cc3)cc2N(C(=O)OC(C)C)C[C@@H]1C [Example I-549]
18 | < 100 | 50 to 500 | 100 to 500 | CC(=O)N1c2ccc(-c3ccc(C(=O)N(C)CC(=O)N(C)C)cc3)cc2N(C(=O)OC(C)C)C[C@@H]1C [Example I-550]
19 | 100 to 1000 | 50 to 500 | 100 to 500 | CC(=O)N1c2ccc(-c3ccc(C(=O)N(C)CCN4CCCC4)cc3)cc2N(C(=O)OC(C)C)C[C@@H]1C [Example I-551]
20 | 100 to 1000 | 50 to 500 | 100 to 500 | CC(=O)N1c2ccc(-c3ccc(C(=O)N(C)c4ccccn4)cc3)cc2N(C(=O)OC(C)C)C[C@@H]1C [Example I-552]
21 | 100 to 1000 | 50 to 500 | < 100 | CC(=O)N1c2ccc(-c3ccc(C(=O)N4CCCN(C)CC4)cc3)cc2N(C(=O)OC(C)C)C[C@@H]1C [Example I-553]
22 | < 100 | < 50 | 100 to 500 | CNC(=O)CN(C)C(=O)c1ccc(-c2ccc3c(c2)N(C(=O)OC(C)C)C[C@H](C)N3C(C)=O)cc1 [Example I-554]
23 | 100 to 1000 | 50 to 500 | < 100 | CC(=O)N1c2ccc(-c3ccc(C(=O)N4C[C@H]5CCN(C)[C@H]5C4)cc3)cc2N(C(=O)OC(C)C)C[C@@H]1C [Example I-555]
24 | 100 to 1000 | 50 to 500 | 100 to 500 | COC(=O)N1c2ccc(-c3ccc(C(=O)N4CCNCC4)cc3)cc2N(C(=O)OC(C)C)C[C@@H]1C [Example I-559]
25 | 100 to 1000 | 50 to 500 | 100 to 500 | CC(C)OC(=O)N1C[C@H](C)N(C(=O)C2CC2)c2ccc(-c3ccc(C(=O)N4CC[C@@H](N(C)C)C4)cc3)cc21 [Example I-564]
26 | 100 to 1000 | 50 to 500 | 100 to 500 | CC(C)OC(=O)N1C[C@H](C)N(C(=O)C2CC2)c2ccc(-c3ccc(C(=O)N4CC[C@H](N(C)C)C4)cc3)cc21 [Example I-566]
27 | 100 to 1000 | 50 to 500 | 100 to 500 | COC(=O)N1c2ccc(-c3ccc(C(=O)N4CC[C@H](N(C)C)C4)cc3)cc2N(C(=O)OC(C)C)C[C@@H]1C [Example I-567]
28 | 100 to 1000 | 50 to 500 | 100 to 500 | CC(=O)N[C@@H]1CCN(C(=O)c2ccc(-c3ccc4c(c3)N(C(=O)OC(C)C)C[C@H](C)N4C(=O)C3CC3)cc2)C1 [Example I-568]
29 | 100 to 1000 | 50 to 500 | 100 to 500 | CC(=O)N[C@H]1CCN(C(=O)c2ccc(-c3ccc4c(c3)N(C(=O)OC(C)C)C[C@H](C)N4C(=O)C3CC3)cc2)C1 [Example I-570]
30 | 100 to 1000 | 50 to 500 | 100 to 500 | COC(=O)N1c2ccc(-c3ccc(C(=O)N4CC[C@H](NC(C)=O)C4)cc3)cc2N(C(=O)OC(C)C)C[C@@H]1C [Example I-571]
31 | 100 to 1000 | 50 to 500 | 100 to 500 | COC(=O)N1c2ccc(-c3ccc(C(=O)N4CCN(S(C)(=O)=O)CC4)cc3)cc2N(C(=O)OC(C)C)C[C@@H]1C [Example I-573]
32 | 100 to 1000 | 50 to 500 | > 500 | CC(C)OC(=O)N1C[C@H](C)N(C(=O)C2CC2)c2ccc(-c3ccc(C(=O)N4CC[C@H](O)C4)cc3)cc21 [Example I-574]
33 | 100 to 1000 | 50 to 500 | 100 to 500 | CC(C)OC(=O)N1C[C@H](C)N(C(=O)C2CC2)c2ccc(-c3ccc(C(=O)N4CC[C@@H](O)C4)cc3)cc21 [Example I-576]
34 | 100 to 1000 | 50 to 500 | 100 to 500 | COC(=O)N1c2ccc(-c3ccc(C(=O)N4CC(O)C4)cc3)cc2N(C(=O)OC(C)C)C[C@@H]1C [Example I-579]
35 | 100 to 1000 | 50 to 500 | 100 to 500 | CC(=O)N1c2ccc(-c3ccc(C(=O)N4CC[C@@H](O)C4)cc3)cc2N(C(=O)OC(C)C)C[C@@H]1C [Example I-581]
